Activity calls are given as the source filed them.
Tests used:
Type in all cases: functional
CHO-K1 = assay: (§1) Counterscreen for antagonists of the orexin 1 receptor (OX1R; HCRTR1): Homogeneous time resolved fluorescence (HTRF)-based cell-based dose response assay to identify antagonists of the parental CHO-K1 cell line. [Related pubchem assays (depositor defined):AID434989, AID435008, AID463079, AID485270, AID492963, AID492964, AID492965, AID493232, AID504699, AID504701]; details: Cricetulus griseus
[1] = as §1, with “Fluorescence-based” for “Homogeneous time resolved fluorescence (HTRF)-based”, “cell-based high throughput” for “cell-based”, “CHO” for “CHO-K1”
[2] = molecular target: T1, Orexin/Hypocretin receptor type 1 (Homo sapiens, UniProt O43613); assay: Homogeneous Time Resolved Fluorescence (HTRF)-based cell-based high throughput dose response assay for antagonists of the orexin 1 receptor (OX1R; HCRTR1). [Related pubchem assays (depositor defined):AID434989, AID435008, AID463079, AID485270, AID492963, AID492964, AID492965, AID493232, AID504717, AID504718]
T1 sequence (O43613 whole entry): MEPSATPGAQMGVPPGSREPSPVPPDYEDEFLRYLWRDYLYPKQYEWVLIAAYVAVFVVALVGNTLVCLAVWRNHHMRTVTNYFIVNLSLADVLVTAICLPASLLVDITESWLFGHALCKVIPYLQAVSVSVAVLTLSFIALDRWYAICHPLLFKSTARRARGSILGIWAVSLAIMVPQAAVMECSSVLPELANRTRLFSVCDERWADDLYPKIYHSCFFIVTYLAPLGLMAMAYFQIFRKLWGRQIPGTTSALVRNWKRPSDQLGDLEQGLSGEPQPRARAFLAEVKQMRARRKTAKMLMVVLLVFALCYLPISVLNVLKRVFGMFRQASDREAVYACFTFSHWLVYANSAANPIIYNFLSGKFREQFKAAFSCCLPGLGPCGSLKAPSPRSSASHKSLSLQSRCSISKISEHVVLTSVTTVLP

[3] = molecular target: T1, Orexin/Hypocretin receptor type 1; assay: Fluorescence-based cell-based high throughput dose response assay for antagonists of the orexin 1 receptor (OX1R; HCRTR1). [Related pubchem assays (depositor defined):AID434989, AID435008, AID463079, AID485270, AID492963, AID492964, AID492965, AID493232, AID504717, AID504718]
Orexin receptor type 2 [4] = molecular target: T2, Orexin receptor type 2 (Homo sapiens, UniProt O43614); assay: Counterscreen assay for antagonists of the orexin 1 receptor (OX1R; HCRTR1): Fluorescence-based cell-based dose response assay for antagonists of the orexin 2 receptor (OX2R; HCRTR2), run by assay provider.
T2 sequence (O43614 whole entry): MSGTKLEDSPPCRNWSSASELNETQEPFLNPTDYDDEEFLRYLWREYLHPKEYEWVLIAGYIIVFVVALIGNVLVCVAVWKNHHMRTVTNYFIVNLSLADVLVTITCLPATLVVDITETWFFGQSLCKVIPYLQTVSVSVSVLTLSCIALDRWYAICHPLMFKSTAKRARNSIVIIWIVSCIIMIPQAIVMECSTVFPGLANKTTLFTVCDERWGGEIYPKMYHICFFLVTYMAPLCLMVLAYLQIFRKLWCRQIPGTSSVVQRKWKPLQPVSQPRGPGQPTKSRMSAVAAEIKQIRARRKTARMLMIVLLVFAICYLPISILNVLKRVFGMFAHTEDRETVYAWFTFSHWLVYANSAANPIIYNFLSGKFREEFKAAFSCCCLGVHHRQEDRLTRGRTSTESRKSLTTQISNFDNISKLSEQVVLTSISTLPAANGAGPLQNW

Orexin receptor type 2 [5] = molecular target: T2, Orexin receptor type 2; assay: Counterscreen assay for antagonists of the orexin 1 receptor (OX1R; HCRTR1): Homogeneous Time Resolved Fluorescence (HTRF)-based cell-based dose response assay for antagonists of the orexin 2 receptor (OX2R; HCRTR2), run by assay provider.
[6] = molecular target: 26S proteasome non-ATPase regulatory subunit 14 (Homo sapiens, UniProt O00487); assay: inhibition of proteasome subunit RPN11 – biochemical, fluorescence polarization, uHTS hits, confirmation (AID 602368)
26S proteasome non-ATPase regulatory subunit 14, sequence (O00487 whole entry): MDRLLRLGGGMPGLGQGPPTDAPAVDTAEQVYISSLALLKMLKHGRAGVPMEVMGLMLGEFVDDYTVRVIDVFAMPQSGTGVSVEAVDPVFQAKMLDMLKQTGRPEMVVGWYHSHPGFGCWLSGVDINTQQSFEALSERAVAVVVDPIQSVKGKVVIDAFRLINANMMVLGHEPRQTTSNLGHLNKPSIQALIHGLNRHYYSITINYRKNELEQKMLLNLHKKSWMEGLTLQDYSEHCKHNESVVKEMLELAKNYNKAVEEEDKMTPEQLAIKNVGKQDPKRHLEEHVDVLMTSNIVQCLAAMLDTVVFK

[7] = molecular target: T3, Corticotropin-releasing factor receptor 2/Corticotropin-releasing factor-binding protein (Homo sapiens, UniProt P24387+Q13324); assay: activators of CRF receptor 2 with binding protein – uHTS hits, confirmation (AID 602473); details: read-out: EC50_Mean
T3 sequence (Q13324 whole entry): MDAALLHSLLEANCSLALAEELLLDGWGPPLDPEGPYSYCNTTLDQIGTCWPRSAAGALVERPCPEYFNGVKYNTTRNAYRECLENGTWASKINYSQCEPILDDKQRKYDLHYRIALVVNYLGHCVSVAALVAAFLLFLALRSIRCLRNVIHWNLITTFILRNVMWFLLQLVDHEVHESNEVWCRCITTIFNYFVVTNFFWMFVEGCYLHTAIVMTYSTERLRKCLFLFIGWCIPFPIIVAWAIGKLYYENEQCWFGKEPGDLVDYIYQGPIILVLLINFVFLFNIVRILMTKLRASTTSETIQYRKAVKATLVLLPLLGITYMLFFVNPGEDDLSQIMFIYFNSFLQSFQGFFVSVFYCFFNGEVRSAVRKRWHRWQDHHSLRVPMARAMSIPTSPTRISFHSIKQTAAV
T3 sequence (P24387 whole entry): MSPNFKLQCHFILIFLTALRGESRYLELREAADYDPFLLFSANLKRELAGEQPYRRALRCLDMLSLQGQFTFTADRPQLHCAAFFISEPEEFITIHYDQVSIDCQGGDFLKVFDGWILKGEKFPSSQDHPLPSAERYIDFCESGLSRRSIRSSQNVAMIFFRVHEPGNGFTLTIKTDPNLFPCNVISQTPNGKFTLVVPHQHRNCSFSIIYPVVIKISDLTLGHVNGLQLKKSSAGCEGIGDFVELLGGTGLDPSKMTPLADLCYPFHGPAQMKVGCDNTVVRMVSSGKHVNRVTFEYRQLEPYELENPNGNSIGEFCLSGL

[8] = molecular target: 72 kDa type IV collagenase (Homo sapiens, UniProt P08253); assay: Dose Response validation of uHTS RPN11 inhibitor hits using a MMP-2 Fluorescence assay.
72 kDa type IV collagenase, sequence (P08253 whole entry): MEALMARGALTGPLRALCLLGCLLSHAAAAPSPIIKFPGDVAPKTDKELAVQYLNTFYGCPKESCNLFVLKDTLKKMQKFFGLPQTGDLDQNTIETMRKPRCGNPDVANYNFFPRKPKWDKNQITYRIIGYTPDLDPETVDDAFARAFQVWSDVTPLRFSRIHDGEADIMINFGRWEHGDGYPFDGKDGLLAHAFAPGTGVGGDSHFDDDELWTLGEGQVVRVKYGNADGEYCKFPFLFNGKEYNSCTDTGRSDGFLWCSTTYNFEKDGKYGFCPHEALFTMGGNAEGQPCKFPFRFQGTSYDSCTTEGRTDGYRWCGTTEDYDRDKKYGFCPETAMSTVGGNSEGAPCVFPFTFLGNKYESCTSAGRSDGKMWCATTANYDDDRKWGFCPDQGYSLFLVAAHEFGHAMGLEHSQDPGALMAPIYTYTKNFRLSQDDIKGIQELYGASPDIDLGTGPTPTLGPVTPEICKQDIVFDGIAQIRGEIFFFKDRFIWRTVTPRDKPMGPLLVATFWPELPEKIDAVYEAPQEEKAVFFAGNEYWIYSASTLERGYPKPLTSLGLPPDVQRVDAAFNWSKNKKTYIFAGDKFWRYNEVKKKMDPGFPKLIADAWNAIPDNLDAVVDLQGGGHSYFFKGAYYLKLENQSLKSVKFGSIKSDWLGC

Prothrombin = Prothrombin (Bos taurus, UniProt P00735); assay: thrombin protease inhibitors – biochemical, fluorescence polarization, uHTS hits, dose response (AID 602369)
[9] = viability of PTEN-deleted HCT116 cells – cell-based, HCT116 PTEN knockout, dose response (AID 1047);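 also: HCT116 colon tumor cells with PTEN knocked out; cells exposed to compound for 60 hours before readout; potency for loss of cell viability measured by luminescence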
[10] = viability of HCT116 lacking mutant beta-catenin – cell-based, human colon tumor, dose response (AID 1045);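 also: HCT116 colon tumor cells with beta catenin knocked out; cells exposed to compound for 60 hours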

IC50 [6] | EC50 [7] | IC50 [8] | IC50 (Prothrombin) | Structure (SMILES) | IC50 (CHO-K1) | IC50 [1] | IC50 [2] | IC50 [3] | IC50 (Orexin receptor type 2 [4]) | IC50 (Orexin receptor type 2 [5]) | EC50 [9] | EC50 [10]
 |  |  |  | Cc1noc(C)c1S(=O)(=O)Nc1ccc(O)c2c(=O)cc(-c3ccccc3Cl)oc12 | > 66.2 µM (inactive) | > 49.7 µM (inactive) | 0.151 µM (active) | 23.6 µM (inactive) | 16.8 µM (inactive) | 5.63 µM (active) |  | 
 |  |  |  | CCn1c2ccccc2c2nc3ccccc3nc21 | > 66.3 µM (inactive) | > 49.8 µM (inactive) | 0.914 µM (active) | 6.2 µM (active) | 35.2 µM (inactive) | 6.65 µM (active) |  | 
37.6 µM (active) | 6.32 µM (active) | > 100 µM (inactive) | 33.4 µM (active) | CCOc1cc(/C=C2\C(=N)N3N=C(CC(=O)N4CCCCC4)SC3=NC2=O)ccc1O |  |  |  |  |  |  |  | 
 |  |  |  | CC(NS(=O)(=O)c1ccc(OCC(=O)Nc2cccc([N+](=O)[O-])c2)cc1)c1ccccc1 (centres undefined) | > 66.2 µM (inactive) | > 49.8 µM (inactive) | 0.688 µM (active) | 13.6 µM (inactive) | > 88.8 µM (inactive) | > 50 µM (inactive) | 18.4 µM (active) | 18.2 µM (active)
